Source: patent publication US4176182A, “Sulfamoyl derivatives of 8-β-aminomethylergoline” (priority 1976, dated 1979)
Converted amounts (≈) assume the structure as drawn. Like-named read-outs stand apart in the source and are kept apart here.

Tests used:
[1] = tested on: 5-hydroxytryptamine (serotonin) induced contractions, uterus of female rat; assay: inhibition of 5-hydroxytryptamine (serotonin)-induced contractions in uterus of female rat, in vitro; format: cell-based; conditions: for EC50: 5-HT-induced contractions, rat treated with estradiol dipropionate 20 hours before; for times more active than the comparison compound as to the anti-5 HT activity: comparison compound methergoline
Protocol: (§1) These novel compounds show anti-serotonin activity both peripherally and on the central nervous system. This activity had been tested "in vitro" through the inhibition of the contractions as induced by 5-hydroxytryptamine (serotonin) (5 HT) in the uterus of a female rat, which 20 hours before the test had been treated with estradiol dipropionate (see Ersparmer, Archiv. int. Pharmacodyn. 93, 293, 1953), and "in vivo" on the clones induced by tryptamine (40 mg/kg i.v.) in the rat (S. J. Corne et al., Brit. J. Pharmacol., 20, 106, 1963).

[2] = tested on: clones induced by tryptamine; assay: clones induced by tryptamine in the rat, in vivo; conditions: sc, read-out: Clones induced by Tryptamine ED50
Protocol: as §1

[3] = tested on: seminal vesicle of guinea pig; assay: adrenolytic activity, seminal vesicle of guinea pig, in vitro; format: cell-based; conditions: for EC50: Cavia porcellus, adrenolytic activity, in vitro; for times less active as regards the adrenolytic activity: vs comparison compound (dihydroergocristine as alpha-blocking agent)
[4] = tested on: ileus of guinea pig (BaCl2); assay: spasmolytic activity, ileus of guinea pig, BaCl2, in vitro; format: cell-based; conditions: for EC50: Cavia porcellus, spasmolytic activity, in vitro, no quantity or unit printed in this column head; for times less active as regards the spasmolytic activity: vs comparison compound (papaverine as spasmolytic agent)
[5] = LD50 in the mouse, iv; conditions: in vivo

| SMILES | EC50 [1] | ED50 ([2]; rat, tryptamine 40 mg/kg i.v.) | EC50 [3] | EC50 [4] | LD50 [5] | times more active than the comparison compound as to the anti-5 HT activity [1] | times less active as regards the adrenolytic activity [3] | times less active as regards the spasmolytic activity [4] | ED50 ([2]; Rattus norvegicus) |
| --- | --- | --- | --- | --- | --- | --- | --- | --- | --- |
| CN1C[C@H](CNS(=O)(=O)N(C)C)C[C@@H]2c3cccc4[nH]cc(c34)C[C@H]21 [Compound 2] | 5 ng/mL (≈ 0.0138 µM) | 10 mg/kg | 1500 ng/mL (≈ 4.14 µM) | 10000 ng/mL (≈ 27.6 µM) | 22.5 mg/kg | – | – | – | – |
| CN1C[C@H](CNS(=O)(=O)N2CCCCC2)C=C2c3cccc4[nH]cc(c34)C[C@H]21 [Compound 5, 1-(6-methyl-8β-didehydroergolenylmethyl)-3-piperidino-sulfonamide] | 3 ng/mL (≈ 0.00749 µM) | 0.51 mg/kg | 200 ng/mL (≈ 0.499 µM) | 7500 ng/mL (≈ 18.7 µM) | 45 mg/kg | – | – | – | – |
| CN1C[C@H](CNS(=O)(=O)N2CCCCCC2)C=C2c3cccc4[nH]cc(c34)C[C@H]21 [Compound 7, 1-(1H-hexahydroazepine)-3-(6-methyl-8β-didehydroergolenyl-methyl)-sulfonamide] | 7 ng/mL (≈ 0.0169 µM) | 2.47 mg/kg | 800 ng/mL (≈ 1.93 µM) | 5000 ng/mL (≈ 12.1 µM) | 50.2 mg/kg | – | – | – | – |
| CN1C[C@H](CNS(=O)(=O)N2CCOCC2)C=C2c3cccc4[nH]cc(c34)C[C@H]21 [Compound 9, 1-(6-methyl-8β-didehydroergolenylmethyl)-3-morpholino-sulfonamide] | 5 ng/mL (≈ 0.0124 µM) | 4.25 mg/kg | 100 ng/mL (≈ 0.248 µM) | 15000 ng/mL (≈ 37.3 µM) | 34.5 mg/kg | – | – | – | – |
| CN1C[C@H](CNS(=O)(=O)N2CCOCC2)C[C@@H]2c3cccc4[nH]cc(c34)C[C@H]21 [Compound 10] | 5 ng/mL (≈ 0.0124 µM) | 7.2 mg/kg | 70 ng/mL (≈ 0.173 µM) | 5000 ng/mL (≈ 12.4 µM) | 51 mg/kg | – | – | – | – |
| CN1C[C@H](CNS(=O)(=O)N2CCCC2)C=C2c3cccc4c3c(cn4C)C[C@H]21 [Compound 11, 1-(1,6-dimethyl-8β-didehydroergolenylmethyl)-3-pyrrolidine-sulfonamide] | 0.2 ng/mL (≈ 0.000499 µM) | 0.016 mg/kg | 1000 ng/mL (≈ 2.5 µM) | 15000 ng/mL (≈ 37.4 µM) | 22.3 mg/kg | 25 times | 25 times | 2 times | – |
| CN1C[C@H](CNS(=O)(=O)N2CCCCC2)C=C2c3cccc4c3c(cn4C)C[C@H]21 [Compound 12, 1-(1,6-dimethyl-8β-didehydroergolenylmethyl)-3-piperidino-sulfonamide] | 0.02 ng/mL (≈ 4.82e-05 µM) | 0.046 mg/kg | 1000 ng/mL (≈ 2.41 µM) | 15000 ng/mL (≈ 36.2 µM) | 20 mg/kg | 250 times | 25 times | 2 times | – |
| CC(C)[C@@]1(NC(=O)[C@@H]2C[C@@H]3c4cccc5[nH]cc(c45)C[C@H]3N(C)C2)O[C@@]2(O)[C@@H]3CCCN3C(=O)[C@H](Cc3ccccc3)N2C1=O [Dihydroergocristine methansulfonate, dihydroergocristine, reference compound] | – | – | 8 ng/mL | – | 70 mg/kg | – | – | – | – |
| CN1C[C@H](CNC(=O)OCc2ccccc2)C[C@@H]2c3cccc4c3c(cn4C)C[C@H]21 [Methergoline, methergoline, reference compound] | 5 ng/mL (≈ 0.0124 µM) | – | – | – | 21.2 mg/kg | – | – | – | 0.062 mg/kg |
| COc1ccc(Cc2nccc3cc(OC)c(OC)cc23)cc1OC [Papaverin, papaverine, reference compound] | – | – | – | 8900 ng/mL (≈ 26.2 µM) | 38 mg/kg | – | – | – | – |
